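Exposure lasted 48 hours, with cells grown in 96-well plates and compounds tested at five concentrations. GI50 marks 50% less growth.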 Active and inactive are the calls of the source. No stated cut-off is given here; in the data, active = GI50 up to about 1.1 µM and inactive = higher.
Experiments:
Experiment in all cases: NCI tumour cell line growth inhibition, 48 h
NCI-H23 = tested on: NCI-H23
CAKI-1 = tested on: CAKI-1
HCT-116 = tested on: HCT-116
MDA-MB-435 = tested on: MDA-MB-435
A549 = tested on: A549
HT-29 = tested on: HT-29
MCF7 = tested on: MCF7
A498 = tested on: A498
PC-3 = tested on: PC-3
SW-620 = tested on: SW-620
LOX IMVI = tested on: LOX IMVI
HOP-62 = tested on: HOP-62
MOLT-4 = tested on: MOLT-4
UACC-257 = tested on: UACC-257
NCI-H522 = tested on: NCI-H522
786-0 = tested on: 786-0
NCI-H460 = tested on: NCI-H460
OVCAR-3 = tested on: OVCAR-3
UO-31 = tested on: UO-31
OVCAR-4 = tested on: OVCAR-4
SNB-19 = tested on: SNB-19
OVCAR-5 = tested on: OVCAR-5
NCI-H226 = tested on: NCI-H226
SN12C = tested on: SN12C
SR = tested on: SR
HCT-15 = tested on: HCT-15
SK-MEL-5 = tested on: SK-MEL-5
SK-MEL-2 = tested on: SK-MEL-2
Malme-3M = tested on: Malme-3M
SF-268 = tested on: SF-268
T47D = tested on: T47D
OVCAR-8 = tested on: OVCAR-8
RPMI-8226 = tested on: RPMI-8226
SNB-75 = tested on: SNB-75
DU-145 = tested on: DU-145
TK-10 = tested on: TK-10
HCC 2998 = tested on: HCC 2998
HL-60 = tested on: HL-60
BT-549 = tested on: BT-549
K562 = tested on: K562
UACC-62 = tested on: UACC-62
SK-MEL-28 = tested on: SK-MEL-28
MDA-MB-231 = tested on: MDA-MB-231
IGROV-1 = tested on: IGROV-1
ACHN = tested on: ACHN
M14 = tested on: M14
CCRF-CEM = tested on: CCRF-CEM
U-251 = tested on: U-251
MDA-N = tested on: MDA-N
Hs-578T = tested on: Hs-578T
SF-295 = tested on: SF-295
KM12 = tested on: KM12
HOP-92 = tested on: HOP-92
COLO 205 = tested on: COLO 205
EKVX = tested on: EKVX
SK-OV-3 = tested on: SK-OV-3
NCI/ADR-RES = tested on: NCI/ADR-RES
SF-539 = tested on: SF-539
RXF 393 = tested on: RXF 393

With `Cc1cc([N+](=O)[O-])ccc1/N=N/C(=O)NNc1ccc([N+](=O)[O-])cc1C` the GI50 (NCI-H23) was 17.3 µM (inactive), the GI50 (CAKI-1) was 14.8 µM (inactive) and the GI50 (HCT-116) was 11.2 µM (inactive). The GI50 (MDA-MB-435) was 12.8 µM (inactive), the GI50 (A549) was 15.8 µM (inactive) and the GI50 (HT-29) was 27 µM (inactive). For the same compound, the GI50 (MCF7) was 3.18 µM (inactive), the GI50 (A498) was 13.6 µM (inactive) and the GI50 (PC-3) was 13.5 µM (inactive). The GI50 (SW-620) was 16.7 µM (inactive), the GI50 (LOX IMVI) was 15.9 µM (inactive) and the GI50 (HOP-62) was 13.7 µM (inactive). The GI50 (MOLT-4) was 15.5 µM (inactive), the GI50 (UACC-257) was 20 µM (inactive) and the GI50 (NCI-H522) was 25 µM (inactive). The GI50 (786-0) was 16.9 µM (inactive), the GI50 (NCI-H460) was 17.6 µM (inactive) and the GI50 (OVCAR-3) was 18.8 µM (inactive). The GI50 (UO-31) was 11.8 µM (inactive), the GI50 (OVCAR-4) was 14.1 µM (inactive) and the GI50 (SNB-19) was 15.6 µM (inactive). For the same compound, the GI50 (OVCAR-5) was 17.1 µM (inactive), the GI50 (NCI-H226) was 15.3 µM (inactive) and the GI50 (SN12C) was 16.7 µM (inactive). The GI50 (SR) was 20.7 µM (inactive), the GI50 (HCT-15) was 19.1 µM and the GI50 (SK-MEL-5) was 13.6 µM (inactive). The GI50 (SK-MEL-2) was 21 µM (inactive), the GI50 (Malme-3M) was 17.3 µM (inactive) and the GI50 (SF-268) was 20 µM (inactive). The GI50 (T47D) was 15.3 µM (inactive), the GI50 (OVCAR-8) was 14.7 µM (inactive) and the GI50 (RPMI-8226) was 21.3 µM (inactive). The GI50 (SNB-75) was 17 µM (inactive), the GI50 (DU-145) was 16.5 µM (inactive) and the GI50 (TK-10) was 16.7 µM (inactive). The GI50 (HCC 2998) was 16 µM (inactive), the GI50 (HL-60) was 20 µM (inactive) and the GI50 (BT-549) was 11.6 µM (inactive). For the same compound, the GI50 (K562) was 19.5 µM (inactive), the GI50 (UACC-62) was 13.5 µM (inactive) and the GI50 (SK-MEL-28) was 16.4 µM (inactive). For the same compound, the GI50 (MDA-MB-231) was > 10 µM (inactive), the GI50 (IGROV-1) was 19.6 µM (inactive) and the GI50 (ACHN) was 15.8 µM (inactive). The GI50 (M14) was 13.6 µM (inactive), the GI50 (CCRF-CEM) was 20.1 µM (inactive) and the GI50 (U-251) was 17.5 µM (inactive). For the same compound, the GI50 (MDA-N) was 15.7 µM (inactive).

`CCOC(=O)c1cc(C#N)[nH]c1-c1ccsc1` was tested, and the GI50 (Hs-578T) was 25.7 µM (inactive), the GI50 (NCI-H23) was 35.5 µM (inactive) and the GI50 (CAKI-1) was 50.7 µM (inactive). The GI50 (HCT-116) was 38.4 µM (inactive), the GI50 (MDA-MB-435) was 23.1 µM (inactive) and the GI50 (A549) was 31.7 µM (inactive). For the same compound, the GI50 (HT-29) was 28.8 µM (inactive), the GI50 (MCF7) was 14.3 µM (inactive) and the GI50 (A498) was 42.7 µM (inactive). The GI50 (PC-3) was 25.5 µM (inactive), the GI50 (SW-620) was 31.3 µM (inactive) and the GI50 (SF-295) was 38 µM (inactive). The GI50 (LOX IMVI) was 36.2 µM (inactive), the GI50 (HOP-62) was 59.8 µM (inactive) and the GI50 (MOLT-4) was 15.3 µM (inactive). For the same compound, the GI50 (UACC-257) was 36.2 µM (inactive), the GI50 (KM12) was 25.1 µM (inactive) and the GI50 (NCI-H522) was 30.3 µM (inactive). For the same compound, the GI50 (786-0) was 44 µM (inactive), the GI50 (NCI-H460) was 32.2 µM (inactive) and the GI50 (HOP-92) was 38.6 µM (inactive). The GI50 (OVCAR-3) was 31 µM (inactive), the GI50 (UO-31) was 0.114 µM (active) and the GI50 (OVCAR-4) was 35.6 µM (inactive). For the same compound, the GI50 (SNB-19) was 56.1 µM (inactive), the GI50 (OVCAR-5) was 34.8 µM (inactive) and the GI50 (NCI-H226) was 44.3 µM (inactive). For the same compound, the GI50 (SN12C) was 54.7 µM (inactive), the GI50 (SR) was 11.8 µM (inactive) and the GI50 (HCT-15) was 29.1 µM. The GI50 (SK-MEL-5) was 34.9 µM (inactive), the GI50 (SK-MEL-2) was 46.7 µM (inactive) and the GI50 (Malme-3M) was 37.4 µM (inactive). The GI50 (SF-268) was 22.8 µM (inactive), the GI50 (OVCAR-8) was 36.6 µM (inactive) and the GI50 (COLO 205) was 32.2 µM (inactive). For the same compound, the GI50 (RPMI-8226) was 23.6 µM (inactive), the GI50 (SNB-75) was 22.5 µM (inactive) and the GI50 (EKVX) was 17.6 µM (inactive). The GI50 (DU-145) was 24.3 µM (inactive), the GI50 (SK-OV-3) was 43.8 µM (inactive) and the GI50 (TK-10) was 38.5 µM (inactive). For the same compound, the GI50 (HCC 2998) was 29.8 µM (inactive), the GI50 (NCI/ADR-RES) was 32.4 µM (inactive) and the GI50 (HL-60) was 16.4 µM (inactive). For the same compound, the GI50 (BT-549) was 34.8 µM (inactive), the GI50 (K562) was 25.6 µM (inactive) and the GI50 (UACC-62) was 47.1 µM (inactive). The GI50 (SK-MEL-28) was 40.2 µM (inactive), the GI50 (MDA-MB-231) was 41.6 µM (inactive) and the GI50 (IGROV-1) was 40.4 µM (inactive). The GI50 (SF-539) was 28.6 µM (inactive), the GI50 (ACHN) was 39.5 µM (inactive) and the GI50 (M14) was 41.7 µM (inactive). For the same compound, the GI50 (CCRF-CEM) was 21.5 µM (inactive), the GI50 (RXF 393) was 17.3 µM (inactive) and the GI50 (U-251) was 25.8 µM (inactive). For the same compound, the GI50 (MDA-N) was 33.9 µM (inactive).

— ChEMBL document CHEMBL1201862, “PubChem BioAssay data set” (2004)
